Assay results reported in US20050277612A1, “Methods, compositions and compound assays for inhibiting amyloid-beta protein production” (priority 2004, published 2005).

Experiments:
[1] = system: amyloid beta 1-42 levels in the conditioned medium of SH-SY5Y cells; experiment: Amyloid beta 1-42 ELISA after adenoviral knock down of SPHK2; type: cell-based; settings: SH-SY5Y cells co-infected with adenoviruses expressing APPwt and the KD sequence, compared to GL2 KD virus infected cells
Experimental: Cells seeded in collagen-coated plates at a cell density of 15000 cells/well (384 well plate) in DMEM (10% FBS), are infected 24 h later with 1 μl or 0.2 μl of adenovirus (corresponding to an average multiplicity of infection (MOI) of 120 and 24 respectively). The following day, the virus is washed away and DMEM (25 mM Hepes; […]) is added to the cells. Amyloid-beta peptides are allowed to accumulate during 24 h. The ELISA plate is prepared by coating with a capture antibody (JRF/cAbeta42/26) (obtained from M Mercken, Johnson and Johnson Pharmaceutical Research and Development, B-2340 Beerse, Belgium) overnight in buffer 42 (Table 2) at a concentration of 2.5 μg/ml. The excess capture antibody is washed away the next morning with PBS and the ELISA plate is then blocked overnight with casein buffer (see Table 2) at 4° C. […] Following the removal of excess detection antibody by a wash with PBS-Tween20 and PBS, HRP activity is detected via addition of luminol substrate (Roche), which is converted into a chemiluminescent signal by the HRP enzyme. […]
(§1) Adenoviral knock down constructs are used to transduce mouse, rat or human primary neuronal cells and/or cell lines (e.g. HEK293, SH-SY5Y, IMR-32, SK-N—SH, SK-N-MC, H4, CHO, COS, HeLa) stably over-expressing APPwt or not. […] In addition, RNA is isolated from these infected cells and SPHK2 RNA levels are determined via real time PCR. […]

[2] = system: SPHK2 RNA; experiment: SPHK2 RNA levels via real time PCR in KD virus infected cells; type: cell-based, Homo Sapiens; settings: infected SH-SY5Y cells, normalized to household keeping genes (GAPDH)
From the text: Upon identification of protein kinase involved of APP processing, it is essential to evaluate whether the kinase is expressed in the tissue and cells of interest. This can be achieved by measuring RNA and/or protein levels. In recent years, RNA levels are being quantified through real time PCR technologies, whereby the RNA is first transcribed to cDNA and then the amplification of the cDNA of interest is monitored during a PCR reaction. The amplification plot and the resulting Ct value are indicators for the amount of RNA present in the sample. To assess whether SPHK cDNA is expressed in the human brain, real time PCR with GAPDH specific primers and specific primers for polynucleotides coding for the SPHK polypeptide (Table 3) is performed on human total brain, human cerebral cortex, and human hippocampal total RNA (BD Biosciences). GAPDH RNA is detected with a Taqman probe, while for the polynucleotides of the invention SybrGreen is used. 40 ng of RNA is transcribed to DNA using the MultiScribe Reverse Transcriptase (50 U/μl) enzyme (Applied BioSystems). […]
as §1

ACTTCTGCATCTACACCTACC [SEQ ID NO: 6]
amyloid beta 1-42 levels in the conditioned medium [1]: reduction
SPHK2 RNA levels [2]: reduced
